# Source: ChEMBL document CHEMBL1155460, “Prediction of acetylcholinesterase inhibitors and characterization of correlative molecular descriptors by machine learning methods” (Eur J Med Chem, 2010)
# Molecular target: Acetylcholinesterase (Homo sapiens, UniProt P22303)
# Sequence (P22303 whole entry): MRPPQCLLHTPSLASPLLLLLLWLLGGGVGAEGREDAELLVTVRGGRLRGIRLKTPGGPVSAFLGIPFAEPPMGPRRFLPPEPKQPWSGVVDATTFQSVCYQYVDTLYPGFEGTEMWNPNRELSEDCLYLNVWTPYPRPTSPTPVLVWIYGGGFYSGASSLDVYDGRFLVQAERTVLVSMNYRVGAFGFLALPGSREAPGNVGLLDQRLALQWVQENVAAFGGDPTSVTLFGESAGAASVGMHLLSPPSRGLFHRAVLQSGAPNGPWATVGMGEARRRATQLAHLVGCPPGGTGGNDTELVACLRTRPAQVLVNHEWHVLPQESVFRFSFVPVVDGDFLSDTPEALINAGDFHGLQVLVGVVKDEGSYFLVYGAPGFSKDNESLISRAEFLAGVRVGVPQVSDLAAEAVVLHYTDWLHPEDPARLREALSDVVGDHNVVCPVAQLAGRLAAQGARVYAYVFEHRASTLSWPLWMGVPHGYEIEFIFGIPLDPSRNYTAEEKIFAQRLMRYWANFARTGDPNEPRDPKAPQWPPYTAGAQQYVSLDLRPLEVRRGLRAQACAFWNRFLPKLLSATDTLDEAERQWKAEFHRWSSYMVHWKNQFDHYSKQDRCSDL
row,Structure (SMILES),IC50 [µM]
1,O=C1c2ccc([N+](=O)[O-])cc2C(=O)N1C1CCN(Cc2ccccc2)CC1,27
2,O=C1c2ccc([N+](=O)[O-])cc2C(=O)N1CC1CCN(Cc2ccccc2)CC1,3
3,CNC(=O)Oc1cccc(CN(C)CCCCCCCOc2ccc3c(c2)O/C(=C\c2cc(O)c(O)c(O)c2)C3=O)c1,0.00052
4,Nc1c2c(nc3ccccc13)-c1ccccc1C2,0.35
5,c1ccc2c(NCCCCCCCCCNc3c4c(nc5ccccc35)CCCC4)ccnc2c1,0.038
6,CC(C)c1cc(-c2ccccc2)nnc1NCCC1CCN(Cc2ccccc2)CC1,0.43
7,CNC(=O)Oc1cccc(CN(C)CCCCCCCOc2ccc3c(c2)CC/C(=C/c2cc(O)c(O)c(O)c2)C3=O)c1,0.00494
8,CN(CCOCCCNC(=S)NC(=O)c1ccccc1)Cc1ccccc1,1.1
9,CN(CCOCCNC(=S)NC(=O)c1ccc2c(c1)C(=O)c1ccccc1-2)Cc1ccccc1,0.03
10,c1ccc(-c2cnc(NCN3CCCCC3)nn2)cc1,60
11,CNC(=O)Oc1ccc(-c2cn3c(NC(C)=O)cccc3[n+]2C)cc1,1.1
12,OCc1cc(-c2ccccc2)nnc1NCCN1CCOCC1,440
13,COc1cccc2n1cc(-c1cccc(OC(=O)N(C)C)c1)[n+]2C,20.5
14,COc1ccccc1CN1CCC(CCC(=O)c2ccc3c(c2)NCCCC3)CC1,2.65
15,O=C1c2ccccc2CCN1CCC1CCN(Cc2ccccc2)CC1,1
16,Nc1c2ccccc2nc2c1cnc1cc(Cl)ccc12,1000
17,O=C(CCC1CCN(Cc2ccccc2)CC1)c1ccc2c(c1)CCCN2,0.054
18,Cc1cc(=NCCC2CCN(Cc3ccccc3)CC2)[nH]nc1-c1ccccc1,0.021
19,O=C(CCOCCc1c[nH]c2ccccc12)NCCCCCCNc1c2c(nc3cc(Cl)ccc13)CCCC2,0.0007
20,O=C(CCOCCc1c[nH]c2ccccc12)NCCCCCCCNc1c2c(nc3cc(Cl)ccc13)CCCC2,0.003
21,CC(=O)Nc1ccc2c(c1)C(=O)N(CCC1CCN(Cc3ccccc3)CC1)C2=O,0.0028
22,CCCCCCNC(=O)Oc1cccc(CN(CCC)CCCOc2ccc3c(=O)c4ccccc4oc3c2)c1,0.4
23,O=C(CCC1CCN(Cc2ccccc2)CC1)c1ccc2c(c1)CCN2,0.02
24,CN1CCC(CCN2C(=O)c3ccc([N+](=O)[O-])cc3C2=O)CC1,6.8
25,CCN1CCc2cc(C(=O)CCC3CCN(Cc4ccccc4)CC3)ccc21,0.011
26,O=C(CCc1c[nH]c2ccccc12)NCCCCCCNc1c2c(nc3ccccc13)CCCC2,2e-05
27,O=C1CCCCN1CCC1CCN(Cc2ccccc2)CC1,0.27

row,Structure (SMILES),IC50 [µM]
1,O=C(c1ccccc1)c1ccc2c(c1)C(=O)N(CCC1CCN(Cc3ccccc3)CC1)C2=O,0.0024
2,O=C(Cc1c[nH]c2ccc(Br)cc12)NCCCCCCCNc1c2c(nc3cc(Cl)ccc13)CCCC2,0.0006
3,c1ccc(-c2ccc(NCCCN3CCc4ccccc4C3)nn2)cc1,35
4,CCC(=O)N(CCC1CCN(Cc2ccccc2)CC1)c1ccccc1,0.83
5,CNC(=O)Oc1ccc(-c2cn3c(C)cccc3[n+]2C)cc1,4
6,CN(C)CCCCCCCCCCNc1c2c(nc3ccccc13)CCCC2,0.045
7,Cc1ccc(C(=O)NC(=S)NCCOCCN(C)Cc2ccccc2)cc1,0.077
8,CN1CCc2cc(C(=O)CCC3CCN(Cc4ccccc4)CC3)ccc21,0.01
9,COc1ccc(/N=C/c2cn(-c3ccc(OC)cc3)cc2/C=N/c2ccc(OC)cc2)cc1,14
10,CCCNC(=O)Oc1ccc2c(c1)[C@]1(C)CCN(CC)[C@@H]1C2,0.154
11,Cc1cn2cc(C(N)=O)ccc2[n+]1C,27
12,O=C1Nc2ccccc2CN1CCC1CCN(Cc2ccccc2)CC1,0.013
13,CCN1CCCCc2ccc(C(=O)CCC3CCN(Cc4ccccc4)CC3)cc21,0.376
14,COc1ccccc1CN1CCC(CCC(=O)c2ccc3c(c2)CCN3)CC1,0.812
15,CN(C)C(=O)Nc1cccc2n1cc(-c1ccc(OC(=O)N(C)C)cc1)[n+]2C,1.6
16,O=C(CCC1CCN(Cc2ccc(F)cc2)CC1)c1ccc2c(c1)NCCCC2,0.393
17,CCCCCCCNC(=O)Oc1ccc2c(c1)[C@]1(C)CCN(C)[C@@H]1C2,0.114
18,CCN1CC[C@@]2(C)c3cc(OC(=O)Nc4ccccc4)ccc3C[C@@H]12,0.176
19,Clc1ccc2c(Nc3ccccc3)c3c(nc2c1)CCCC3,0.17
20,c1ccc2c(NCCCCCCCNc3ccncc3)c3c(nc2c1)CCCC3,0.0128
21,c1ccc2c(NCCCCCCCNc3c4c(nc5ccccc35)CCC4)c3c(nc2c1)CCC3,0.075
22,O=C(CCC1CCN(Cc2ccccc2)CC1)c1ccc2c(c1)N(Cc1ccccc1)CC2,0.853
23,COc1cc2c(cc1OC)C(=O)C(CC1CCN(c3ccccc3)CC1)C2 (centres undefined),0.0057
24,O=C(NCCCCCNc1c2c(nc3cc(Cl)ccc13)CCCC2)c1c[nH]c2ccccc12,0.18
25,CN1CCCc2ccc(C(=O)CCC3CCN(Cc4ccccc4)CC3)cc21,0.036
26,O=C(CCc1c[nH]c2ccccc12)NCCCCCCCCCCNc1c2c(nc3cc(Cl)ccc13)CCCC2,0.0219
27,COc1cc2c(cc1OC)C(O)C(CC1CCN(c3ccccc3)CC1)C2 (centres undefined),0.3

row,Structure (SMILES),IC50 [µM]
1,C[n+]1c(-c2ccccc2)cn2cc(C(N)=O)ccc21,9.5
2,COc1cccc(N(CCC2CCN(Cc3ccccc3)CC2)C(C)=O)c1,0.046
3,CN(CCOCCNC(=S)Nc1cccc2ccccc12)Cc1ccccc1,10
4,CCCCCCNC(=O)Oc1cccc(CN(CCCOc2ccc3c(=O)c4ccccc4oc3c2)C(C)C)c1,0.17
5,O=C(CCC1CCN(Cc2cccc([N+](=O)[O-])c2)CC1)c1ccc2c(c1)NCCCC2,0.39
6,O=C(Nc1cccc2c1C(=O)N(CCC1CCN(Cc3ccccc3)CC1)C2=O)c1ccccc1,0.34
7,CC(=O)Nc1cccc2n1cc(-c1ccc(OC(=O)N(C)C)cc1)[n+]2C,0.7
8,CN(CCNc1ccc(-c2ccccc2)nn1)Cc1ccccc1,170
9,CN1CCCCc2ccc(C(=O)CCC3CCN(Cc4ccccc4)CC3)cc21,0.081
10,c1ccc(NCCCCCCCCCCCCNc2c3c(nc4ccccc24)CCCC3)cc1,0.261
11,Nc1c2c(nc3ccccc13)-c1ccccc1CC2,37
12,CC(=O)N(C)c1cccc2n1cc(-c1ccc(OC(=O)N(C)C)cc1)[n+]2C,24.5
13,c1ccc(CN2CCC(CCNc3ccc(-c4ccccc4)nn3)CC2)cc1,0.12
14,Cc1cc(-c2ccc3c(c2)OCO3)nnc1NCCN1CCCCC1,1
15,c1ccc(C2=NNC(NCN3CCCCC3)=NC2)cc1,47
16,CCCCCCNC(=O)Oc1ccc2c(c1)[C@@H]1CCN(CC)[C@@H]1C2,0.208
17,CNC(=O)Oc1cccc(-c2cn3c(NC(C)=O)cccc3[n+]2C)c1,4.5
18,CC12CCC(c3c1nc1ccccc1c3N)C2(C)C (centres undefined),110
19,c1ccc(-c2cc(-c3ccccc3)c(NCCN3CCOCC3)nn2)cc1,260
20,Cc1cc(-c2ccccc2)nnc1NCCN1CCCCC1,5.4
21,CN(CCOCCNC(=S)NC(=O)c1ccc(-c2ccccc2)cc1)Cc1ccccc1,0.23
22,CCCN1CCc2cc(C(=O)CCC3CCN(Cc4ccccc4)CC3)ccc21,0.022
23,Clc1ccc2c(NCCCCCCCNc3c4c(nc5cc(Cl)ccc35)CCCC4)c3c(nc2c1)CCCC3,7e-05
24,Cc1cc(C2(c3cc(C)c(O)c(C)c3)CCCCC2)cc(C)c1O,15
25,CN(C)C(=O)Oc1ccc(-c2cn3c(Cl)cccc3[n+]2C)cc1,12.6
